Data taken from patent US8304427B2, “Acylthiourea compound or salt thereof, and use thereof” (Taiho Pharmaceutical Co., Ltd., priority 2008, dated 2012).
Read-outs that look alike come from different tables or passages of the source. One block for each molecule: values may come before it.

What was measured:
[1] = system: HMEC (human skin microvascular endothelial cell); experiment: Cell proliferation inhibition test against normal cells HMEC; format: cell-based; conditions: for IC50: Homo sapiens, 72 h, HMEC, normal, c-Met status (−), 3 days, read-out: IC50 HMEC; for ratio HMEC: IC50 HMEC relative to IC50 NUGC4
Protocol: [Worded in the source for another cell line; this cell line is reported under the same test.] (§1) The thus-prepared test compound solution was added to each well of the NUGC4 cell culture plate at 0.1 mL/well, and the plate was incubated in an incubator under 5% CO2 gas atmosphere at 37° C. for 3 days. […] Thereafter, the plate was washed with tap water and dried. Then, aqueous 0.05% Crystal Violet/20% methanol solution (product of Wako Pure Chemical Industries Ltd.) was added to each well at 100 μL/well, and the plate was left to stand at room temperature for 20 minutes, whereby cells were stained. Thereafter, the plate was washed with tap water and dried. To each well, 0.05 M NaH2PO4/ethanol (1/1=v/v) (100 μL) was added, to thereby extract Crystal Violet. The absorbance of the extracted Crystal Violet was measured at 540 nm using a microplate reader, and the absorbance was employed as an index for living cell count. […] Percent inhibition (%)=(C−T)/C×100 • T: Absorbance of well to which a test compound was added • C: Absorbance of well to which no test compound was added

[2] = system: HCT-116; experiment: Cell proliferation inhibition test against c-Met low expressing tumor cells (HCT-116); format: cell-based; conditions: for IC50: Homo sapiens, read-out: IC50 HCT-116; for ratio HCT-116: IC50 HCT-116 relative to IC50 NUGC4
[3] = system: NUGC4 cells; experiment: Cell-proliferation inhibitory assay against NUGC4 cells (Crystal Violet); format: cell-based; conditions: Homo sapiens, NUGC-4, 72 h; NUGC4, cancer, c-Met status (+), 3 days
Protocol: Cell-Proliferation Inhibitory Assay Against NUGC4 Cells (Human Gastric Cancer Cell Strain in Which c-Met is Over-Expressed and Highly Activated), In Vitro Test
NUGC4 cell suspension (in a 10% FBS-containing RPMI 1640 medium (product of Wako Pure Chemical Industries Ltd.) or a FBS-containing DMEM medium (product of Nacalai Tesque, Inc.)) was inoculated to each well of a 96-well (flat-bottom) microplate in an amount of 2×10^3 cells (0.1 mL), and the plate was incubated in an incubator under 5% CO2 gas atmosphere at 37° C. for one day. Each of the compounds of the present invention and comparative compound 1 was dissolved in dimethyl sulfoxide to a concentration of 30 mM. The solution was diluted with 10% FBS-containing RPMI 1640 or DMEM medium, to a final test compound concentration of 60, 20, 6, 2, 0.6, or 0.2 μM. The thus-prepared test compound solution was added to each well of the NUGC4 cell culture plate at 0.1 mL/well, and the plate was incubated in an incubator under 5% CO2 gas atmosphere at 37° C. for 3 days. After culturing, 25% aqueous glutaraldehyde solution (product of Nacalai Tesque, Inc.) was added to each well at 20 μL, and the plate was left to stand at room temperature for 20 minutes, whereby cells were fixed. Thereafter, the plate was washed with tap water and dried. Then, aqueous 0.05% Crystal Violet/20% methanol solution (product of Wako Pure Chemical Industries Ltd.) was added to each well at 100 μL/well, and the plate was left to stand at room temperature for 20 minutes, whereby cells were stained. Thereafter, the plate was washed with tap water and dried. To each well, 0.05 M NaH2PO4/ethanol (1/1=v/v) (100 μL) was added, to thereby extract Crystal Violet. The absorbance of the extracted Crystal Violet was measured at 540 nm using a microplate reader, and the absorbance was employed as an index for living cell count. Percent inhibition was calculated by the following equation, and the 50% inhibition test compound concentration (IC50 (μM)) was calculated. Percent inhibition (%)=(C−T)/C×100 • T: Absorbance of well to which a test compound was added • C: Absorbance of well to which no test compound was added

[4] = biological target: T1, c-Met (Homo sapiens, UniProt P08581); experiment: c-Met inhibitory assay using AlphaScreen (Method A); format: biochemical; set-up: purchased Carna bio Co., Ltd 08-051; conditions: ATP 20 μM
Protocol: Inhibitory activity of compounds against c-Met kinase was determined through the following procedures. Method A) c-Met inhibitory assay using AlphaScreen™
A biotinylated peptide including a phosphorylated site of Pyk2 (Tyr402), which is reported as a bio-substrate in Clin. Cancer Res. vol. […] The mixture was allowed to react at room temperature for 20 minutes. EDTA was added to the reaction mixture to a final concentration of 50 mM, to thereby terminate reaction. […] The reaction was done for one hour at room temperature. Thereafter, the fluorescence intensity from the reaction mixture was measured using a multi-label counter (EnVision™, Perkin Elmer).
Target sequence in this assay (P08581 956-1390 limits assumed): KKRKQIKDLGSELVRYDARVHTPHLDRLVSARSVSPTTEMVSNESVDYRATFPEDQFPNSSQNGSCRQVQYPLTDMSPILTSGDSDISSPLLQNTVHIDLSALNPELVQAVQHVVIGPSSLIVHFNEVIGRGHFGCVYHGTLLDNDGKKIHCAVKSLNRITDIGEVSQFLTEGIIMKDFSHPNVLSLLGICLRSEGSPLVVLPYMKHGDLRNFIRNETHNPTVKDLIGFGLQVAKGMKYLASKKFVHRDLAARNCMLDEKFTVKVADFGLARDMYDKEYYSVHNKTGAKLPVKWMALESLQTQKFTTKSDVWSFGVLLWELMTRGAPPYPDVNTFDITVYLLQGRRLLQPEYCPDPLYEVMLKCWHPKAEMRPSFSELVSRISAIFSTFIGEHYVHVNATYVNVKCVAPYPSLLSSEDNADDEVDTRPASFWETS

[5] = system: HAOSMC (human aortic smooth muscle cell); experiment: Cell proliferation inhibition test against normal cells HAOSMC; format: cell-based; conditions: for IC50: Homo sapiens, 72 h, HAOSMC, normal, c-Met status (−), 3 days, read-out: IC50 HAOSMC; for ratio HAOSMC: IC50 HAOSMC relative to IC50 NUGC4
Protocol: [Worded in the source for another cell line; this cell line is reported under the same test.] as §1

[6] = biological target: T1, c-Met; experiment: c-Met inhibitory assay using DeskTop Profiler (Method B); format: biochemical; set-up: made in house; conditions: ATP 43 μM
Protocol: Method B) c-Met Inhibitory Assay Using DeskTop Profiler
A dephosphorylation enzyme inhibitor cocktail (PhosSTOP, #4906837, product of Roche) and a protease inhibitor cocktail (Complete, Mini, EDTA-free, #1836170; product of Roche) were added to a reaction buffer (100 mM HEPES (pH: 7.5), 10 mM MgCl2, 0.003% Brij-35, 0.04% Tween, and 1 mM DTT). In the presence of the compound of the present invention, recombinant c-Met (purified product of Taiho Pharmaceutical Co., Ltd.), fluorescence-labeled c-Met substrate peptide (FL-Peptide 2, #760346, Caliper Life Sciences) (final concentration: 1.5 μM), and ATP (final concentration: 43 μM) were added thereto, and the mixture was allowed to react at 28° C. for 90 minutes. EDTA was added to the reaction mixture to a final concentration of 10 mM, to thereby terminate reaction. By use of DeskTop Profiler (#119900, Caliper Life Sciences), each fluorescence intensity of the substrate and that of the phosphorylated product was determined, whereby the amount of the formed phosphorylated product was determined. The compound concentration that realizes 50% inhibition of formation of phosphorylated product was defined as IC50 (μM), and the results are shown in the following Tables.
Target sequence in this assay (P08581 25-1390): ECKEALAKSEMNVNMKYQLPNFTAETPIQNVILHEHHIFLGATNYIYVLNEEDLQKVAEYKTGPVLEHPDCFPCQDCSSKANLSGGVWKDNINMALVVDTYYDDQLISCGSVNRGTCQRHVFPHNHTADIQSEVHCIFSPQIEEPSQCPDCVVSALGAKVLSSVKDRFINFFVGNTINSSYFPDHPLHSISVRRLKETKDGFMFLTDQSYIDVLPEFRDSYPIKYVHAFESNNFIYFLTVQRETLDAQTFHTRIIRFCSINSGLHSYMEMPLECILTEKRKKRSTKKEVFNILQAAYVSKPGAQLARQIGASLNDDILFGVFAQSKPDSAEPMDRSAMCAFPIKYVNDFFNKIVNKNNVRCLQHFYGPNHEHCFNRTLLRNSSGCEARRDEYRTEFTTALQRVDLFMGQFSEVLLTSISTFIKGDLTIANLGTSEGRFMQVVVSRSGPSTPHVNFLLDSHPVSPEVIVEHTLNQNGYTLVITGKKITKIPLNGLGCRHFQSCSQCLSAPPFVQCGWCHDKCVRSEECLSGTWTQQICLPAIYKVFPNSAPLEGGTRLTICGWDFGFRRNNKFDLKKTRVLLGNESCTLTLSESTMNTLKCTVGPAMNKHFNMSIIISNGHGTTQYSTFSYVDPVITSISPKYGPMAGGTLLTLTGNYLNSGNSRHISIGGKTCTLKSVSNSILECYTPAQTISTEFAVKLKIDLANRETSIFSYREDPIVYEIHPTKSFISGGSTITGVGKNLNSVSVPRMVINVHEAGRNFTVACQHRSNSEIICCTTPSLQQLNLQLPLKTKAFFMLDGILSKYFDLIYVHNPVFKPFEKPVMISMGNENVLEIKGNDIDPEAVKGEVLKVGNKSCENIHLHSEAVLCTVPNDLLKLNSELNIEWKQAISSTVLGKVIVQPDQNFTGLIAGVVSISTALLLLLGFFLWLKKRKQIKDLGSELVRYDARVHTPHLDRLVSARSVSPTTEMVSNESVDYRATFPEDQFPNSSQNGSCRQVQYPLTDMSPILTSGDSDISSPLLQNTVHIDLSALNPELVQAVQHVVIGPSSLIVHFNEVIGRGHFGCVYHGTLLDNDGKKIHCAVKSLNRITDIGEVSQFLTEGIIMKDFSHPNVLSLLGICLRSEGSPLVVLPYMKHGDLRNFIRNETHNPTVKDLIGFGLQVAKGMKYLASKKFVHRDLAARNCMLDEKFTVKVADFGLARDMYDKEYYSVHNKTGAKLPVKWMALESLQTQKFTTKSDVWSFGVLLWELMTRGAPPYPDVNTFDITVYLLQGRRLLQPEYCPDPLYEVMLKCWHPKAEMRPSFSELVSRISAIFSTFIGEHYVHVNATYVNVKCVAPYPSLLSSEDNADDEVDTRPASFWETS

[7] = 72 h, HCT-116, cancer, c-Met status (−), 3 days

SMILES: COc1cc2nccc(Oc3ccc(NC(=S)NC(=O)Cc4ccccc4)cc3F)c2cc1C(=O)NCCCN1CCCC1=O [Example 5, 4-(2-Fluoro-4-(3-(2-phenylacetyl)thioureido)phenoxy)-7-methoxy-N-(3-(2-oxopyrrolidin-1-yl)propyl)quinoline-6-carboxamide]
IC50 [1]: 23 µM
ratio HMEC [1]: 681
IC50 [2, 7]: 29 µM
ratio HCT-116 [2]: 857
IC50 [3]: 30 nM
IC50 [4]: 116 nM
IC50 [5]: > 30 µM
ratio HAOSMC [5]: >879

SMILES: CCNC(=O)N1CCC(NC(=O)c2cc3c(Oc4ccc(NC(=S)NC(=O)Cc5ccccc5)cc4F)ccnc3cc2OC)CC1 [Example 15, N-(1-(Ethylcarbamoyl)piperidin-4-yl)-4-(2-fluoro-4-(3-(2-phenylacetyl)thioureido)phenoxy)-7-methoxyquinoline-6-carboxamide]
IC50 [1]: > 30 µM
ratio HMEC [1]: >1584
IC50 [2, 7]: > 30 µM
ratio HCT-116 [2]: >1584
IC50 [3]: 20 nM
IC50 [4]: 138 nM
IC50 [5]: > 30 µM
ratio HAOSMC [5]: >1584

SMILES: COc1cc2nccc(Oc3ccc(NC(=S)NC(=O)Cc4ccc(F)cc4)cc3F)c2cc1C(=O)NCCN1CCOCC1 [Example 37, 4-(2-fluoro-4-(3-(2-(4-fluorophenyl)acetyl)thioureido)phenoxy)-7-methoxy-N-(2-morpholinoethyl)quinoline-6-carboxamide]
IC50 [6]: 35 nM
IC50 [2, 7]: > 30 µM
ratio HCT-116 [2]: >3000
IC50 [3]: 10 nM

SMILES: CC[C@@H](CO)NC(=O)c1cc2c(Oc3ccc(NC(=S)NC(=O)Cc4ccc(F)cc4)cc3F)ccnc2cc1OC [Example 38, (S)-4-(2-Fluoro-4-(3-(2-(4-fluorophenyl)acetyl)thioureido)phenoxy)-N-(1-hydroxybutan-2-yl)-7-methoxyquinoline-6-carboxamide]
IC50 [6]: 32 nM
IC50 ([2]; HCT-116, 72 h): > 30 µM
ratio HCT-116 [2]: >719
IC50 [3]: 40 nM

SMILES: COc1cc2nccc(Oc3ccc(NC(=S)NC(=O)Cc4ccc(Cl)cc4)cc3F)c2cc1C(=O)NCC(C)(C)O [Example 42, 4-(4-(3-(2-(4-Chlorophenyl)acetyl)thioureido)-2-fluorophenoxy)-N-(2-hydroxy-2-methylpropyl)-7-methoxyquinoline-6-carboxamide]
IC50 [6]: 45 nM

SMILES: CC[C@@H](CO)NC(=O)c1cc2c(Oc3ccc(NC(=S)NC(=O)Cc4ccc(Cl)cc4)cc3F)ccnc2cc1OC [Example 43, (S)-4-(4-(3-(2-(4-Chlorophenyl)acetyl)thioureido)-2-fluorophenoxy)-N-(1-hydroxybutan-2-yl)-7-methoxyquinoline-6-carboxamide]
IC50 [6]: 50 nM

SMILES: COc1cc2nccc(Oc3ccc(NC(=S)NC(=O)Cc4c(F)cccc4F)cc3F)c2cc1C(=O)NCCN1CCOCC1 [Example 44]
IC50 [6]: 101 nM

SMILES: COc1cc2nccc(Oc3ccc(NC(=S)NC(=O)Cc4c(F)cccc4F)cc3F)c2cc1C(=O)NCC(C)(C)O [Example 45]
IC50 [6]: 56 nM

SMILES: CNC(=O)c1cc2c(Oc3ccc(NC(=S)NC(=O)Cc4cccc(OC)c4)cc3F)ccnc2cc1OC [Example 46, 4-(2-Fluoro-4-(3-(2-(3-methoxyphenyl)acetyl)thioureido)phenoxy)-7-methoxy-N-methylquinoline-6-carboxamide]
IC50 [6]: 85 nM

SMILES: CNC(=O)c1cc2c(Oc3ccc(NC(=S)NC(=O)Cc4ccc(C(F)(F)F)cc4)cc3F)ccnc2cc1OC [Example 47, 4-(2-Fluoro-4-(3-(2-(4-trifluoromethylphenyl)acetyl)thioureido)phenoxy)-7-methoxy-N-methylquinoline-6-carboxamide]
IC50 [6]: 203 nM

SMILES: CNC(=O)c1cc2c(Oc3ccc(NC(=S)NC(=O)Cc4ccccc4)c(F)c3)ccnc2cc1OC [Example 49, 4-(3-Fluoro-4-(3-(2-phenylacetyl)thioureido)phenoxy)-7-methoxy-N-methylquinoline-6-carboxamide]
IC50 [6]: 62 nM

SMILES: COc1cc2nccc(Oc3ccc(NC(=S)NC(=O)Cc4ccccc4)cc3F)c2cc1C(=O)N(C)C [Example 50, 4-(2-Fluoro-4-(3-(2-phenylacetyl)thioureido)phenoxy)-7-methoxy-N,N-dimethylquinoline-6-carboxamide]
IC50 [6]: 139 nM

Second part, led by results:

IC50 [6]: 22 nM
IC50 [2, 7]: > 30 µM
SMILES: COc1cc2nccc(Oc3ccc(NC(=S)NC(=O)Cc4ccccc4)cc3F)c2cc1C(=O)NCC(=O)N1CCC[C@H]1CO [Example 34, (S)-4-(2-Fluoro-4-(3-(2-phenylacetyl)thioureido)phenoxy)-N-(2-(2-(hydroxymethyl)pyrrolidin-1-yl)-2-oxoethyl)-7-methoxyquinoline-6-carboxamide]
ratio HCT-116 [2]: >2000
IC50 [3]: 20 nM

IC50 [6]: 29 nM
SMILES: COc1cc2nccc(Oc3ccc(NC(=S)NC(=O)Cc4ccccc4F)cc3F)c2cc1C(=O)NCC(C)(C)O [Example 39, 4-(2-Fluoro-4-(3-(2-(2-fluorophenyl)acetyl)thioureido)phenoxy)-N-(2-hydroxy-2-methylpropyl)-7-methoxyquinoline-6-carboxamide]

IC50 [6]: 27 nM
SMILES: CC[C@@H](CO)NC(=O)c1cc2c(Oc3ccc(NC(=S)NC(=O)Cc4ccccc4F)cc3F)ccnc2cc1OC [Example 40, (S)-4-(2-Fluoro-4-(3-(2-(2-fluorophenyl)acetyl)thioureido)phenoxy)-N-(1-hydroxybutan-2-yl)-7-methoxyquinoline-6-carboxamide]

IC50 [6]: 34 nM
SMILES: CC[C@@H](CO)NC(=O)c1cc2c(Oc3ccc(NC(=S)NC(=O)Cc4cccc(F)c4)cc3F)ccnc2cc1OC [Example 41, (S)-4-(2-Fluoro-4-(3-(2-(3-fluorophenyl)acetyl)thioureido)phenoxy)-N-(1-hydroxybutan-2-yl)-7-methoxyquinoline-6-carboxamide]

IC50 [6]: 34 nM
SMILES: CNC(=O)c1cc2c(Oc3ccc(NC(=S)NC(=O)Cc4ccccc4)cc3Cl)ccnc2cc1OC [Example 48, 4-(2-Chloro-4-(3-(2-phenylacetyl)thioureido)phenoxy)-7-methoxy-N-methylquinoline-6-carboxamide]
